Laboratory results reported in patent US4177264A, “N-benzyl anthracyclines” (priority 1978, dated 1979).
Read-outs that look alike come from different tables or passages of the source. Blank lines part the entries; values can stand above or below the compound they belong to.

Tests used:
L1210 Cells [1] = assay: Inhibition of DNA synthesis in L1210 cells; assay type: cell-based; settings: Mus musculus
Description: (§1) ^c Assay described in G. Tong, W. W. Lee, D. R. Black and D. W. Henry

isolated helical DNA = assay: ΔTm of isolated helical DNA (DNA-binding); settings: difference in DNA melting temperature with and without drug; ~1° weak binding if any, ≥5° significant binding
Description: (§2) Sufficient samples of all but compound (VIII) have been obtained for biological screening, and recent results of tests both in vitro and in vivo are shown in Table 2 below. […] The in vitro results are surprising and appear to be highly significant in that there is an abrupt and unexpected loss of DNA-binding properties in going from N-benzyl to N,N-dibenzyl compounds. ΔTm is the most direct measure of DNA-binding but the inhibition of nucleic acid synthesis is also lost. Most of the anthracyclines bind to DNA, presumably by an intercalation mechanism and are mutagenic. In these N,N-dibenzyl compounds the anti-tumor activity in the mouse screen is retained but the DNA-binding properties are lost.
^b ΔTm values represent the difference in temperature
between that at which the DNA denatures (or melts) without the drug and
that at which denaturing occurs in the presence of the drug;

leukemia P388 = assay: Ip P388 leukemia in mice, survival time (NCI Protocol 1,200); assay type: in vivo; settings: for response vs control in vivo at 37.5 mg/kg: q4d 5,9,13, 37.5 mg/kg (optimum dose); for response vs control in vivo at 8 mg/kg: q4d 5,9,13, 8 mg/kg
Description: as §2
Highest Mean T/C vs P388 in
^d Ip P388 leukemia treated ip on QD1-9 and Q4D 5,9,13 schedules
according to standard NCI protocols. Assay described in R. I. Geran, N. H
Greenberg, M. M. MacDonald, A. M. Schumacker and B. J. Abbott, Cancer
Chemother. Rep., Part 3, 3, (No. 2), 9 (1972), Protocol 1,200. T/C = rati
of survival time of treated mice to that of untreated controls times 100.
Untreated controls survive about 9 days. For Dnm and Adm, % T/C values ar
means from several dozen tests, with standard deviation up to ±40. For
the Nbenzyl compounds, % T/C values are means from all the tests (1 to 3)
so far, at the optimum dose.

L1210 Cells [2] = assay: Inhibition of RNA synthesis in L1210 cells; assay type: cell-based; settings: Mus musculus
Description: as §1

[3] = L1210 cells, DNA synthesis, read-out: Inhib of Synth, DNA, ED50
[4] = Mus musculus, P388, ip, mean from 1 to 3 tests, read-out: Highest Mean T/C vs P388 in Mice
[5] = L1210 cells, RNA synthesis, read-out: Inhib of Synth, RNA, ED50
[6] = L1210, read-out: Inhib of Synth, DNA, ED50
[7] = Mus musculus, P388, ip, read-out: Highest Mean T/C vs P388 in Mice
[8] = L1210, read-out: Inhib of Synth, RNA, ED50
[9] = Mus musculus, P388, ip, mean from several dozen tests, SD up to ±40, read-out: Highest Mean T/C vs P388 in Mice
[10] = Mus musculus, P388, ip, qd 1-9, 6.25 mg/kg (optimum dose), mean from 1 to 3 tests, read-out: Highest Mean T/C vs P388 in Mice

IC50 (L1210 Cells [1]; [3]): 1400 nM
ΔTm (isolated helical DNA): 7.6 °C
IC50 (L1210 Cells [2]; [5]): 290 nM
Structure (SMILES): COc1cccc2c1C(=O)c1c(O)c3c(c(O)c1C2=O)C[C@@](O)(C(O)CO)C[C@@H]3O[C@H]1C[C@H](NCc2ccccc2)[C@H](O)[C@H](C)O1 (stereo partly shown) [IV, N-Benzyl-13-dihydroadriamycin]
response vs control in vivo at 37.5 mg/kg (leukemia P388; [4]): 143%
response vs control in vivo at 1.56 mg/kg (leukemia P388; Mus musculus, P388, ip, qd 1-9, 1.56 mg/kg (optimum dose), mean from 1 to 3 tests, read-out: Highest Mean T/C vs P388 in Mice): 196%

Structure (SMILES): COc1cccc2c1C(=O)c1c(O)c3c(c(O)c1C2=O)C[C@@](O)(C(C)=O)C[C@@H]3O[C@H]1C[C@H](NCc2ccccc2)[C@H](O)[C@H](C)O1 [I, N-Benzyldaunomycin]
IC50 (L1210 Cells [1]; [6]): 1600 nM
ΔTm (isolated helical DNA): 10.2 °C
response vs control in vivo at 6.25 mg/kg (leukemia P388; [7]): 187%
response vs control in vivo at 18.8 mg/kg (leukemia P388; [7]): 226%
IC50 (L1210 Cells [2]; [8]): 170 nM

Structure (SMILES): COc1cccc2c1C(=O)c1c(O)c3c(c(O)c1C2=O)C[C@@](O)(C(C)O)C[C@@H]3O[C@H]1C[C@H](N(Cc2ccccc2)Cc2ccccc2)[C@H](O)[C@H](C)O1 (stereo partly shown) [Compound VI, N,N-Dibenzyl-13-dihydrodaunomycin]
IC50 (L1210 Cells [1]; L1210 cells, DNA synthesis, (susp), read-out: Inhib of Synth, DNA, ED50 (susp)): 220000 nM
ΔTm (isolated helical DNA): 0.6 °C
response vs control in vivo at 50 mg/kg (leukemia P388; Mus musculus, P388, ip, q4d 5,9,13, 50 mg/kg (optimum dose), mean from 1 to 3 tests, read-out: Highest Mean T/C vs P388 in Mice): 233%
response vs control in vivo at 40 mg/kg (leukemia P388; Mus musculus, P388, ip, qd 1-9, 40 mg/kg (optimum dose), mean from 1 to 3 tests, read-out: Highest Mean T/C vs P388 in Mice): 229%
IC50 (L1210 Cells [2]; [5]): 7600 nM

Structure (SMILES): COc1cccc2c1C(=O)c1c(O)c3c(c(O)c1C2=O)C[C@@](O)(C(C)=O)C[C@@H]3O[C@H]1C[C@H](N)[C@H](O)[C@H](C)O1 [IX, Daunomycin, reference compound]
IC50 (L1210 Cells [1]; [3]): 1000 nM
response vs control in vivo at 8 mg/kg (leukemia P388; [9]): 134%
response vs control in vivo at 0.5 mg/kg (leukemia P388; Mus musculus, P388, ip, qd 1-9, 0.5 mg/kg, mean from several dozen tests, SD up to ±40, read-out: Highest Mean T/C vs P388 in Mice): 167%
IC50 (L1210 Cells [2]; [5]): 300 nM

IC50 (L1210 Cells [1]; [3]): 1700 nM
ΔTm (isolated helical DNA): 6.25 °C
IC50 (L1210 Cells [2]; [5]): 320 nM
Structure (SMILES): COc1cccc2c1C(=O)c1c(O)c3c(c(O)c1C2=O)C[C@@](O)(C(C)O)C[C@@H]3O[C@H]1C[C@H](NCc2ccccc2)[C@H](O)[C@H](C)O1 (stereo partly shown) [II, N-Benzyl-13-dihydrodaunomycin]
response vs control in vivo at 6.25 mg/kg (leukemia P388; [10]): 226%

Structure (SMILES): COc1cccc2c1C(=O)c1c(O)c3c(c(O)c1C2=O)C[C@@](O)(C(=O)CO)C[C@@H]3O[C@H]1C[C@H](N)[C@H](O)[C@H](C)O1 [X, Adriamycin, reference compound]
IC50 (L1210 Cells [1]; [3]): 1500 nM
ΔTm (isolated helical DNA): 13.4 °C
response vs control in vivo at 8 mg/kg (leukemia P388; [9]): 157%
response vs control in vivo at 1 mg/kg (leukemia P388; Mus musculus, P388, ip, qd 1-9, 1.0 mg/kg, mean from several dozen tests, SD up to ±40, read-out: Highest Mean T/C vs P388 in Mice): 193%
IC50 (L1210 Cells [2]; [5]): 670 nM

Structure (SMILES): COc1cccc2c1C(=O)c1c(O)c3c(c(O)c1C2=O)C[C@@](O)(C(=O)CO)C[C@@H]3O[C@H]1C[C@H](N(Cc2ccccc2)Cc2ccccc2)[C@H](O)[C@H](C)O1 [Compound VII, N,N-Dibenzyladriamycin]
IC50 (L1210 Cells [1]; [6]): 110000 nM
ΔTm (isolated helical DNA): -1.2 °C
response vs control in vivo at 6.25 mg/kg (leukemia P388; [7]): 175%
IC50 (L1210 Cells [2]; [8]): 4800 nM

Structure (SMILES): COc1cccc2c1C(=O)c1c(O)c3c(c(O)c1C2=O)C[C@@](O)(C(C)=O)C[C@@H]3O[C@H]1C[C@H](N(Cc2ccccc2)Cc2ccccc2)[C@H](O)[C@H](C)O1 [Compound V, N,N-Dibenzyldaunomycin]
IC50 (L1210 Cells [1]; [3]): > 100000 nM
ΔTm (isolated helical DNA): 1.35 °C
response vs control in vivo at 37.5 mg/kg (leukemia P388; [4]): 227%
response vs control in vivo at 25 mg/kg (leukemia P388; Mus musculus, P388, ip, qd 1-9, 25 mg/kg (optimum dose), mean from 1 to 3 tests, read-out: Highest Mean T/C vs P388 in Mice): 259%
activity against leukemia P388 in mice (in words) (leukemia P388; ip, mice): clearly the best
IC50 (L1210 Cells [2]; [5]): 10000 nM

IC50 (L1210 Cells [1]; [3]): 650 nM
ΔTm (isolated helical DNA): 11.3 °C
IC50 (L1210 Cells [2]; [5]): 90 nM
Structure (SMILES): COc1cccc2c1C(=O)c1c(O)c3c(c(O)c1C2=O)C[C@@](O)(C(=O)CO)C[C@@H]3O[C@H]1C[C@H](NCc2ccccc2)[C@H](O)[C@H](C)O1 [III, N-Benzyladriamycin]
response vs control in vivo at 18.8 mg/kg (leukemia P388; Mus musculus, P388, ip, q4d 5,9,13, 18.8 mg/kg (optimum dose), mean from 1 to 3 tests, read-out: Highest Mean T/C vs P388 in Mice): 200%
response vs control in vivo at 6.25 mg/kg (leukemia P388; [10]): 224%
